The test deals with FIMMI (Fimbristylis miliacea, globe fringerush). As to the kind of experiment: In-water applied mixtures, transplanted paddy rice, greenhouse. It counts as in vivo, Fimbristylis miliacea (L.) Vahl. Particulars: 19 DAA. The method, then:
Weed seeds or nutlets of the desired test plant species were planted in puddled soil (mud) prepared by mixing a shredded, non-sterilized mineral soil (50.5 percent silt, 25.5 percent clay, and 24 percent sand, with a pH of about 7.6 and an organic matter content of about 2.9 percent) and water at a 1:1 volumetric ratio. The prepared mud was dispensed in 365 mL aliquots into 16-ounce (oz.) non-perforated plastic pots with a surface area of 86.59 square centimeters (cm^2) leaving a headspace of 3 centimeters (cm) in each pot Mud was allowed to dry overnight prior to planting or transplanting. Rice seeds were planted in Sun Gro MetroMix® 306 planting mixture, which typically has a pH of 6.0 to 6.8 and an organic matter content of about 30 percent, in plastic plug trays. Seedlings at the second or third leaf stage of growth were transplanted into 840 mL of mud contained in 32-oz. non-perforated plastic pots with a surface area of 86.59 cm^2 4 days prior to herbicide application. The paddy was created by filling the headspace of the pots with 2.5 to 3 cm of water. When required to ensure good germination and healthy plants, a fungicide treatment and/or other chemical or physical treatment was applied. The plants were grown for 4-22 days in a greenhouse with an approximate 14 h photoperiod which was maintained at about 29° C during the day and 26° C. during the night. Nutrients were added as Osmocote® (19:6:12, N:P:K+ minor nutrients) at 2 g per 16-oz. pot and 4 g per 32-oz. pot. Water was added on a regular basis to maintain the paddy flood, and supplemental lighting was provided with overhead metal halide 1000-Watt lamps as necessary. The plants were employed for testing when they reached the first through fourth true leaf stage.
Treatments consisted of the acid or esters of 4-amino-3-chloro-5-fluoro-6-(4-chloro-2-fluoro-3-methoxy-phenyl)pyridine-2-carboxylic acid (compound A) each formulated as an SC (suspension concentrate) and various herbicidal components alone and in combination. Forms of compound A were applied on an acid equivalent basis.
Other herbicidal components were applied on an active ingredient basis and included photosystem II (PSII)-inhibits propanil formulated as […] bentazon-sodium formulated as Basagran®, and simetryne (technical grade material).
Treatment requirements for each compound or herbicidal component were calculated based upon the rates being tested, the concentration of active ingredient or acid equivalent in the formulation, an application volume of 2 mL per component per pot, and an application area of 86.59 cm^2 per pot.
For formulated compounds, a measured amount was placed in an individual 100 or 200 mL glass vial and was dissolved in a volume of 1.25% (v/v) Agri-Dex® crop oil concentrate to obtain application solutions.
For technical grade compounds, a weighed amount was placed in an individual 100 to 200 mL glass vial and was dissolved in a volume of acetone to obtain concentrated stock solutions. […]
The treated plants and control plants were placed in a greenhouse as described above and water was added as needed to maintain a paddy flood. After approximately 3 weeks the condition of the test plants as compared with that of the untreated plants was determined visually and scored on a scale of 0 to 100 percent where 0 corresponds to no injury or growth inhibition and 100 corresponds to complete kill. […]

`COc1c(Cl)ccc(-c2nc(C(=O)OCc3ccccc3)c(Cl)c(N)c2F)c1F` [Compound A Benzyl Ester, benzyl ester of 4-amino-3-chloro-5-fluoro-6-(4-chloro-2-fluoro-3-methoxy-phenyl)pyridine-2-carboxylic acid]: the “Visual Weed Control (%) Obs” value reads like this: (8 g ae/ha) 0%; (16 g ae/ha) 0%; (32 g ae/ha) 85%.

Source of the values: US8912121B2, “Herbicidal compositions comprising 4-amino-3-chloro-5-fluoro-6-(4-chloro-2-fluoro-3-methoxyphenyl)pyridine-2-carboxylic acid or a derivative thereof and certain PS II inhibitors” (Dow Agrosciences LLC, priority 2012, dated 2014).
